Data reported in ChEMBL document CHEMBL1201862, “PubChem BioAssay data set” (2004).
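Method: 48-hour compound exposure of cells in 96-well plates, five concentrations, linear interpolation of endpoints. GI50 is the concentration that inhibits growth by half.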 The source made the active and inactive calls. Rule as the data show it: active = GI50 up to about 1.1 µM and inactive = higher.

Columns and labels:
Test in all cases: inhibition of tumour cell growth, NCI panel, 48 h
A498 = tested on: A498
HCC 2998 = tested on: HCC 2998
HCT-15 = tested on: HCT-15
KM12 = tested on: KM12
MDA-N = tested on: MDA-N
Malme-3M = tested on: Malme-3M
NCI-H226 = tested on: NCI-H226
NCI-H23 = tested on: NCI-H23
NCI/ADR-RES = tested on: NCI/ADR-RES
OVCAR-5 = tested on: OVCAR-5
RXF 393 = tested on: RXF 393
SK-MEL-28 = tested on: SK-MEL-28
SN12C = tested on: SN12C
SNB-19 = tested on: SNB-19
SW-620 = tested on: SW-620
U-251 = tested on: U-251
UACC-257 = tested on: UACC-257
UO-31 = tested on: UO-31
SK-MEL-2 = tested on: SK-MEL-2
SK-MEL-5 = tested on: SK-MEL-5

| SMILES | GI50 (A498) | GI50 (HCC 2998) | GI50 (HCT-15) | GI50 (KM12) | GI50 (MDA-N) | GI50 (Malme-3M) | GI50 (NCI-H226) | GI50 (NCI-H23) | GI50 (NCI/ADR-RES) | GI50 (OVCAR-5) | GI50 (RXF 393) | GI50 (SK-MEL-28) | GI50 (SN12C) | GI50 (SNB-19) | GI50 (SW-620) | GI50 (U-251) | GI50 (UACC-257) | GI50 (UO-31) | GI50 (SK-MEL-2) | GI50 (SK-MEL-5) |
| --- | --- | --- | --- | --- | --- | --- | --- | --- | --- | --- | --- | --- | --- | --- | --- | --- | --- | --- | --- | --- |
| Cc1cc(C#N)c(Nc2c(C)cccc2[N+](=O)[O-])s1 | 66.7 µM (inactive) | 87.7 µM (inactive) | 50 µM | > 100 µM (inactive) | 97.7 µM (inactive) | 40.2 µM (inactive) | > 100 µM (inactive) | 39.7 µM (inactive) | 25.4 µM (inactive) | 12.4 µM (inactive) | 16.4 µM (inactive) | 76.9 µM (inactive) | > 100 µM (inactive) | 68.2 µM (inactive) | > 100 µM (inactive) | 35.7 µM (inactive) | 39.3 µM (inactive) | > 100 µM (inactive) | – | – |
| N#Cc1ccc(OC(=O)c2ccc(NC(=N)N)cc2)cc1.c1ccncc1 | > 100 µM (inactive) | – | 46.9 µM | 57 µM (inactive) | 64.3 µM (inactive) | > 100 µM (inactive) | 50 µM (inactive) | > 100 µM (inactive) | > 100 µM (inactive) | > 100 µM (inactive) | > 100 µM (inactive) | > 100 µM (inactive) | 63.2 µM (inactive) | 56.2 µM (inactive) | 35.5 µM (inactive) | 61.2 µM (inactive) | > 100 µM (inactive) | > 100 µM (inactive) | > 100 µM (inactive) | > 100 µM (inactive) |
| Nc1ccc(/C=C/c2ccc3cccnc3c2)cc1 | > 100 µM (inactive) | > 100 µM (inactive) | > 100 µM | > 100 µM (inactive) | > 100 µM (inactive) | > 100 µM (inactive) | > 100 µM (inactive) | > 100 µM (inactive) | > 100 µM (inactive) | > 100 µM (inactive) | > 100 µM (inactive) | > 100 µM (inactive) | > 100 µM (inactive) | > 100 µM (inactive) | > 100 µM (inactive) | > 100 µM (inactive) | > 100 µM (inactive) | > 100 µM (inactive) | – | > 100 µM (inactive) |
| CCOC(=O)c1ccc2c(c1)Cc1cc([N+](=O)[O-])ccc1-2 | 28.4 µM (inactive) | – | 57.8 µM | 69.3 µM (inactive) | 48 µM (inactive) | > 100 µM (inactive) | 17.8 µM (inactive) | 32.4 µM (inactive) | 25.1 µM (inactive) | 57.4 µM (inactive) | 22.9 µM (inactive) | 43 µM (inactive) | 89.3 µM (inactive) | > 100 µM (inactive) | 65.2 µM (inactive) | 39.4 µM (inactive) | 48.1 µM (inactive) | 30.4 µM (inactive) | – | 17.3 µM (inactive) |
| O=C1N[C@@H]2c3c(csc3Br)C(=O)[C@@H]2O1 | > 100 µM (inactive) | 17.9 µM (inactive) | 31.5 µM | 47 µM (inactive) | 25.1 µM (inactive) | 32 µM (inactive) | – | 41.7 µM (inactive) | 96.4 µM (inactive) | 74 µM (inactive) | 15.5 µM (inactive) | 33.3 µM (inactive) | 42.5 µM (inactive) | 94 µM (inactive) | 20.2 µM (inactive) | 24.2 µM (inactive) | 22.4 µM (inactive) | 20.9 µM (inactive) | 46.5 µM (inactive) | > 100 µM (inactive) |
| COc1cc(O)c(C(=O)/C=C/c2ccc(O)cc2)cc1Oc1ccc(C(=O)/C=C/c2ccc(O)cc2)c(O)c1 [RHUSCHALCONE IV] | 2.05 µM (inactive) | – | 1.79 µM | 1.44 µM (inactive) | 3.21 µM (inactive) | 2.58 µM (inactive) | – | 2.67 µM (inactive) | 2.91 µM (inactive) | 2.69 µM (inactive) | 2.48 µM (inactive) | 1.95 µM (inactive) | 2.45 µM (inactive) | 4.53 µM (inactive) | 3.36 µM (inactive) | 1.93 µM (inactive) | 6.19 µM (inactive) | 2.56 µM (inactive) | 3.36 µM (inactive) | 1.92 µM (inactive) |
| CN(CCc1ccccn1)C(=S)N/N=C(\c1ccccc1)c1ccccn1 | < 0.01 µM (active) | 1.52 µM (inactive) | < 0.01 µM | 0.0194 µM (active) | 0.582 µM (active) | < 0.01 µM (active) | – | < 0.01 µM (active) | < 0.01 µM (active) | 1.05 µM (active) | 1.09 µM (active) | 0.802 µM (active) | < 0.01 µM (active) | 0.215 µM (active) | < 0.01 µM (active) | 0.0101 µM (active) | < 0.01 µM (active) | 0.0192 µM (active) | 1.42 µM (inactive) | 0.0986 µM (active) |
